Results reported in patent US20050008851A1, “Biosensor” (FUJI PHOTO FILM CO., LTD., priority 2003, published 2005).

Details: water at 20° C.

C=C(C)C(=O)OCCCC [butyl methacrylate]
solubility in water: 0.03 % by weight

C=Cc1ccccc1 [styrene]
solubility in water: 0.03 % by weight

C=C(C)C(=O)OC [methyl methacrylate]
solubility in water: 1.35 % by weight
